Measurements as given in patent publication US12479843B2, “Spiro ring-containing quinazoline compounds” (WIGEN BIOMEDICINE TECHNOLOGY (SHANGHAI) CO., LTD., priority 2019, dated 2025).

Key:
H358 cells = test: Antiproliferative activity against H358 cells (Cell Titer Glow, ultra-low attachment plate); format: cell-based; settings: Homo sapiens, NCI-H358, 72 h, 96-well ultra-low attachment plate, three days after addition of compound, Cell Titer Glow
Protocol: 2500 H358 cells were seeded in a 96-well ultra-low attachment plate (corning, 7007). After one day of growth, a serially diluted compound (a maximum concentration of 5 μM, 5-fold dilution, a total of five doses) was added. Three days after the addition of the compound, Cell Titer Glow (Promega, G9681) was added to evaluate pellet growth, and the IC50 value was calculated.

pERK level in H358 cells = test: pERK and ERK protein content assay in H358 cells (ELISA); format: cell-based; settings: Homo sapiens, NCI-H358, compound 1 μM, 24 h, pERK/ERK ratio compared with DMSO group, read-out: Inhibition rate (%) of pERK level
Summary of the method: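 H358 cells grown one day, then treated 24 h with compound at 1 μM. pERK and ERK in lysates measured by ELISA; pERK/ERK ratio expressed as percent inhibition versus DMSO.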

C=CC(=O)N1CC2(CCN(c3nc(N4CCC5(CCN(CCOC)C5)CC4)nc4c(OCC(F)(F)F)c(-c5c(C)ccc6[nH]ncc56)c(C5CC5)cc34)CC2)C1 [Compound 105]
IC50 (H358 cells): < 300 nM | inhibition at 1 µM (pERK level in H358 cells): > 90%

C=C(F)C(=O)N1CC2(CCN(c3nc(N4CCC5(CCN(CCOC)C5)CC4)nc4c(OCC(F)(F)F)c(-c5c(C)ccc6[nH]ncc56)c(C5CC5)cc34)CC2)C1 [Compound 106]
IC50 (H358 cells): 300 to 1000 nM | inhibition at 1 µM (pERK level in H358 cells): 50 to 90%

C=CC(=O)N1CC2(CCN(c3nc(N4CCC5(CCN(CCOC)CC5)CC4)nc4c(OCC(F)(F)F)c(-c5c(C)ccc6[nH]ncc56)c(C5CC5)cc34)CC2)C1 [Compound 107]
IC50 (H358 cells): 300 to 1000 nM | inhibition at 1 µM (pERK level in H358 cells): 50 to 90%

C=C(F)C(=O)N1CC2(CCN(c3nc(N4CCC5(CCN(CCOC)CC5)CC4)nc4c(OCC(F)(F)F)c(-c5c(C)ccc6[nH]ncc56)c(C5CC5)cc34)CC2)C1 [Compound 108]
IC50 (H358 cells): 300 to 1000 nM | inhibition at 1 µM (pERK level in H358 cells): 50 to 90%

C=CC(=O)N1CC2(CCN(c3nc(OC4CN(C)C4)nc4c(OCC(F)(F)F)c(-c5c(C)ccc6[nH]ncc56)c(C5CC5)cc34)CC2)C1 [Compound 109]
IC50 (H358 cells): < 300 nM | inhibition at 1 µM (pERK level in H358 cells): > 90%

C=C(F)C(=O)N1CC2(CCN(c3nc(OC4CN(C)C4)nc4c(OCC(F)(F)F)c(-c5c(C)ccc6[nH]ncc56)c(C5CC5)cc34)CC2)C1 [Compound 110]
IC50 (H358 cells): < 300 nM | inhibition at 1 µM (pERK level in H358 cells): > 90%

C=CC(=O)N1CC2(CCN(c3nc(OC4CN(C5COC5)C4)nc4c(OCC(F)(F)F)c(-c5c(C)ccc6[nH]ncc56)c(C5CC5)cc34)CC2)C1 [Compound 111]
IC50 (H358 cells): < 300 nM | inhibition at 1 µM (pERK level in H358 cells): > 90%

C=C(F)C(=O)N1CC2(CCN(c3nc(OC4CN(C5COC5)C4)nc4c(OCC(F)(F)F)c(-c5c(C)ccc6[nH]ncc56)c(C5CC5)cc34)CC2)C1 [Compound 112]
IC50 (H358 cells): 300 to 1000 nM | inhibition at 1 µM (pERK level in H358 cells): 50 to 90%

C=CC(=O)N1CC2(CCN(c3nc(OC4CN(CCOC)C4)nc4c(OCC(F)(F)F)c(-c5c(C)ccc6[nH]ncc56)c(C5CC5)cc34)CC2)C1 [Compound 113]
IC50 (H358 cells): < 300 nM | inhibition at 1 µM (pERK level in H358 cells): > 90%

C=C(F)C(=O)N1CC2(CCN(c3nc(OC4CN(CCOC)C4)nc4c(OCC(F)(F)F)c(-c5c(C)ccc6[nH]ncc56)c(C5CC5)cc34)CC2)C1 [Compound 114]
IC50 (H358 cells): < 300 nM | inhibition at 1 µM (pERK level in H358 cells): > 90%

C=CC(=O)N1CC2(CCN(c3nc(OC[C@@H]4COCCN4C)nc4c(OCC(F)(F)F)c(-c5c(C)ccc6[nH]ncc56)c(C5CC5)cc34)CC2)C1 [Compound 115]
IC50 (H358 cells): 300 to 1000 nM | inhibition at 1 µM (pERK level in H358 cells): 50 to 90%

C=C(F)C(=O)N1CC2(CCN(c3nc(OC[C@@H]4COCCN4C)nc4c(OCC(F)(F)F)c(-c5c(C)ccc6[nH]ncc56)c(C5CC5)cc34)CC2)C1 [Compound 116]
IC50 (H358 cells): 300 to 1000 nM | inhibition at 1 µM (pERK level in H358 cells): 50 to 90%

C=CC(=O)N1CC2(CCN(c3nc(OC[C@@H]4COCCN4CCOC)nc4c(OCC(F)(F)F)c(-c5c(C)ccc6[nH]ncc56)c(C5CC5)cc34)CC2)C1 [Compound 117]
IC50 (H358 cells): < 300 nM | inhibition at 1 µM (pERK level in H358 cells): > 90%

C=C(F)C(=O)N1CC2(CCN(c3nc(OC[C@@H]4COCCN4CCOC)nc4c(OCC(F)(F)F)c(-c5c(C)ccc6[nH]ncc56)c(C5CC5)cc34)CC2)C1 [Compound 118]
IC50 (H358 cells): < 300 nM | inhibition at 1 µM (pERK level in H358 cells): > 90%

C=CC(=O)N1CC2(CCN(c3nc(OC4C5CC4CN(CCOC)C5)nc4c(OCC(F)(F)F)c(-c5c(C)ccc6[nH]ncc56)c(C5CC5)cc34)CC2)C1 (stereo not drawn) [Compound 119]
IC50 (H358 cells): < 300 nM | inhibition at 1 µM (pERK level in H358 cells): 50 to 90%

C=C(F)C(=O)N1CC2(CCN(c3nc(OC4C5CC4CN(CCOC)C5)nc4c(OCC(F)(F)F)c(-c5c(C)ccc6[nH]ncc56)c(C5CC5)cc34)CC2)C1 (stereo not drawn) [Compound 120]
IC50 (H358 cells): 300 to 1000 nM | inhibition at 1 µM (pERK level in H358 cells): 50 to 90%

C=CC(=O)N1CC2(CCN(c3nc(OC4CC5CC4CN5CCOC)nc4c(OCC(F)(F)F)c(-c5c(C)ccc6[nH]ncc56)c(C5CC5)cc34)CC2)C1 (stereo not drawn) [Compound 121]
IC50 (H358 cells): < 300 nM | inhibition at 1 µM (pERK level in H358 cells): 50 to 90%

C=C(F)C(=O)N1CC2(CCN(c3nc(OC4CC5CC4CN5CCOC)nc4c(OCC(F)(F)F)c(-c5c(C)ccc6[nH]ncc56)c(C5CC5)cc34)CC2)C1 (stereo not drawn) [Compound 122]
IC50 (H358 cells): 300 to 1000 nM | inhibition at 1 µM (pERK level in H358 cells): 50 to 90%

C=CC(=O)N1CC2(CCN(c3nc(OC4CC5(C4)CN(C)C5)nc4c(OCC(F)(F)F)c(-c5c(C)ccc6[nH]ncc56)c(C5CC5)cc34)CC2)C1 [Compound 123]
IC50 (H358 cells): < 300 nM | inhibition at 1 µM (pERK level in H358 cells): > 90%

C=C(F)C(=O)N1CC2(CCN(c3nc(OC4CC5(C4)CN(C)C5)nc4c(OCC(F)(F)F)c(-c5c(C)ccc6[nH]ncc56)c(C5CC5)cc34)CC2)C1 [Compound 124]
IC50 (H358 cells): < 300 nM | inhibition at 1 µM (pERK level in H358 cells): > 90%

C=CC(=O)N1CC2(CCN(c3nc(OC4CC5(C4)CN(CCOC)C5)nc4c(OCC(F)(F)F)c(-c5c(C)ccc6[nH]ncc56)c(C5CC5)cc34)CC2)C1 [Compound 125]
IC50 (H358 cells): < 300 nM | inhibition at 1 µM (pERK level in H358 cells): > 90%
